# Measured values as given in patent publication US20230322723A1, “COMPOUNDS FOR SUPPRESSING EGFR MUTANT CANCER AND PHARMACEUTICAL USE THEREOF” (J2H BIOTECH INC., priority 2020, published 2023).
# How the values were obtained:
# [1] = tested on: EGFR^del19+T790M+C797S; experiment: EGFR protein degradation test (Western blot) in Ba/F3 cells expressing mutant EGFR del19+T790M+C797S (DTC); type: cell-based; conditions: compounds at 0.1 μM and 1 μM, 24 hours, Western blot with EGFR antibody
# Procedure: (§1) The ability of the compounds of the present invention to degrade the mutant EGFR protein was confirmed in Ba/F3 cells expressing normal EGFR, mutant EGFR^del19+T790M+C797S or mutant EGFR^L858R+T790M+C797S. A Western blot test using the EGFR antibody was performed.
# (§2) Specifically, Ba/F3 cells expressing EGFR were cultured in RPMI 1640 (Gibco, NY, USA) containing 10% fetal bovine serum (FBS, Gibco, NY, USA). Cells expressing normal EGFR, mutant EGFR^del19+T790M+C797S or mutant EGFR^L858R+T790M+C797S were treated with the compounds of the present invention at concentrations of 0.1 μM and 1 μM, respectively, for 24 hours. After that, it was washed twice with phosphate buffered saline (PBS) and SDS-PAGE was performed with 30 μg of cell lysate. After the protein separated on the gel was transferred to a nitrocellulose membrane, the expression level of the EGFR protein was confirmed using an EGFR antibody (Santa Cruz biotechnology, Santacruz, CA, USA). EGFR bands separated by Western blotting were quantitatively analyzed with Fluo-S MultiImager (Bio-Rad, Hercules, CA, USA).
# [2] = target: T1, EGFR^L858R+T790M+C797S (Homo sapiens, UniProt P00533, C797S/L858R/T790M); experiment: EGFR protein degradation test (Western blot) in Ba/F3 cells expressing mutant EGFR L858R+T790M+C797S (LTC); type: cell-based; conditions: compounds at 0.1 μM and 1 μM, 24 hours, Western blot with EGFR antibody
# T1 construct: expressed in transfected cells; host or cells: Ba/F3
# T1 sequence (P00533 25-1210 T790M/C797S/L858R): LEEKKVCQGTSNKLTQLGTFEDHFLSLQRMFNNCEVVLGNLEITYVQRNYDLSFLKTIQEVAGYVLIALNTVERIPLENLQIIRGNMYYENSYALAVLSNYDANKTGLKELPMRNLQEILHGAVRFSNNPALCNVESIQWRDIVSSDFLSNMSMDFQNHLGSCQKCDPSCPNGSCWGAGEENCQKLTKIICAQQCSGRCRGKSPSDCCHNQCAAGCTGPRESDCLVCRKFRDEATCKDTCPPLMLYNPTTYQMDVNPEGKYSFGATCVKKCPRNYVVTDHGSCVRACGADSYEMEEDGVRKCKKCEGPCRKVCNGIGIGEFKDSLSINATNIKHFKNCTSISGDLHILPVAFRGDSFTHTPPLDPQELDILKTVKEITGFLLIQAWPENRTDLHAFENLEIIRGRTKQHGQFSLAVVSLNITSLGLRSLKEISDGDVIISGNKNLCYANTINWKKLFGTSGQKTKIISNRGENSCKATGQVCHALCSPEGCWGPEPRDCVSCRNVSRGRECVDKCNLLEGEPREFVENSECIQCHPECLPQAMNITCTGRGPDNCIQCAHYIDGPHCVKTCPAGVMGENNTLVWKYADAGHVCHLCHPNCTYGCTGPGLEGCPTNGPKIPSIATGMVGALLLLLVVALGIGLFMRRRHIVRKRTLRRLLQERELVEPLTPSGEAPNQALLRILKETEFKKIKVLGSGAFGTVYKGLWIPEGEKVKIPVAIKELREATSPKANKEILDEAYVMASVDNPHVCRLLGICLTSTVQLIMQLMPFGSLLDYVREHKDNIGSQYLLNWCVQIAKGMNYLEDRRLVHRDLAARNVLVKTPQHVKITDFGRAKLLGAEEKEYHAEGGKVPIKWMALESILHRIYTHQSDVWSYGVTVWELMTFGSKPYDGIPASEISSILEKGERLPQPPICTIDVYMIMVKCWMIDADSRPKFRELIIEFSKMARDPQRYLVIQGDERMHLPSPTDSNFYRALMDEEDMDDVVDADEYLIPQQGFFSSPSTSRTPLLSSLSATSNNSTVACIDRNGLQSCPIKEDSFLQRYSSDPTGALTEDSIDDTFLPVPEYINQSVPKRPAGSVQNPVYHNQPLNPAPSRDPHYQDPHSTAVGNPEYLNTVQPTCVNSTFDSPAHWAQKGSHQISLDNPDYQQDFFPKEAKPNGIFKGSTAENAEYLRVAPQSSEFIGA
# Procedure: as §1, §2
SMILES,DTC (EGFR^del19+T790M+C797S) protein degradation [1],LTC (EGFR^L858R+T790M+C797S) protein degradation [2]
"COc1cc(N2CC3(CN(CCC(=O)Nc4cccc5c4C(=O)N(C4CCC(=O)NC4=O)C5=O)C3)C2)ccc1Nc1ncc(Cl)c(Nc2ccccc2N(C)S(C)(=O)=O)n1 (centres unmarked) [Compound 32, 3-(6-(4-((5-chloro-4-((2-(N-methylmethylsulfonamido)phenyl)amino)pyrimidin-2-yl)amino)-3-methoxyphenyl)-2,6-diazaspiro[3,3]heptan-2-yl)-N-(2-(2,6-dioxopiperidin-3-yl)-1,3-dioxoisoindolin-4-yl)propanamide]",− (Protein degradation < 20%),− (Protein degradation < 20%)
"COc1cc(N2CCN(CCOC3CN(c4ccc5c(c4)C(=O)N(C4CCC(=O)NC4=O)C5=O)C3)CC2)ccc1Nc1ncc(Cl)c(Nc2ccccc2N(C)S(C)(=O)=O)n1 (centres unmarked) [Compound 33, N-(2-((5-chloro-2-((4-(4-(2-((1-(2-(2,6-dioxopiperidin-3-yl)-1,3-dioxoisoindolin-5-yl)azetidin-3-yl)oxy)ethyl)piperazin-1-yl)-2-methoxyphenyl)amino)pyrimidin-4-yl)amino)phenyl)-N-methylmethanesulfonamide]",+ (Protein degradation 20~80%),− (Protein degradation < 20%)
"COc1cc(N2CCN(CCOC3CCN(c4ccc5c(c4)C(=O)N(C4CCC(=O)NC4=O)C5=O)CC3)CC2)ccc1Nc1ncc(Cl)c(Nc2ccccc2N(C)S(C)(=O)=O)n1 (centres unmarked) [Compound 34, N-(2-((5-chloro-2-((4-(4-(2-((1-(2-(2,6-dioxopiperidin-3-yl)-1,3-dioxoisoindolin-5-yl)piperidin-4-yl)oxy)ethyl)piperazin-1-yl)-2-methoxyphenyl)amino)pyrimidin-4-yl)amino)phenyl)-N-methylmethanesulfonamide]",− (Protein degradation < 20%),− (Protein degradation < 20%)
"COc1cc(N2CCC(CN3CC(C(=O)N[C@H](C(=O)N4C[C@H](O)C[C@H]4C(=O)NCc4ccc(-c5scnc5C)cc4)C(C)(C)C)C3)CC2)ccc1Nc1ncc(Cl)c(Nc2ccccc2N(C)S(C)(=O)=O)n1 [Compound 38, (2S,4R)-1-((S)-2-(1-((1-(4-((5-chloro-4-((2-(N-methylmethylsulfonamido)phenyl)amino)pyrimidin-2-yl)amino)-3-methoxyphenyl)piperidin-4-yl)methyl)azetidin-3-carboxamido)-3,3-dimethylbutanoyl)-4-hydroxy-N-(4-(4-methylthiazol-5-yl)benzyl)pyrrolidin-2-carboxamide]",− (Protein degradation < 20%),− (Protein degradation < 20%)
"CN(c1ccccc1Nc1nc(Nc2ccc(N3CCN(CCN4CC(Oc5cccc6c5CN(C5CCC(=O)NC5=O)C6=O)C4)CC3)c(F)c2)ncc1Cl)S(C)(=O)=O (centres unmarked) [Compound 39, N-(2-((5-chloro-2-((4-(4-(2-(3-((2-(2,6-dioxopiperidin-3-yl)-1-oxoisoindolin-4-yl)oxy)azetidin-1-yl)ethyl)piperazin-1-yl)-3-fluorophenyl)amino)pyrimidin-4-yl)amino)phenyl)-N-methylmethanesulfonamide]",+ (Protein degradation 20~80%),+ (Protein degradation 20~80%)
"CN(c1ccccc1Nc1nc(Nc2ccc(N3CCN(CCOC4CN(c5ccc6c(c5)C(=O)N(C5CCC(=O)NC5=O)C6=O)C4)CC3)c(F)c2)ncc1Cl)S(C)(=O)=O (centres unmarked) [Compound 40, N-(2-((5-chloro-2-((4-(4-(2-((1-(2-(2,6-dioxopiperidin-3-yl)-1,3-dioxoisoindolin-5-yl)azetidin-3-yl)oxy)ethyl)piperazin-1-yl)-3-fluorophenyl)amino)pyrimidin-4-yl)amino)phenyl)-N-methylmethanesulfonamide]",+ (Protein degradation 20~80%),+ (Protein degradation 20~80%)
"COc1cc(N2CCN(CC3CCN(Cc4ccc5c(c4)C(=O)N(C4CCC(=O)NC4=O)C5=O)CC3)CC2)ccc1Nc1ncc(Cl)c(Nc2ccccc2N(C)S(C)(=O)=O)n1 (centres unmarked) [Compound 41, N-(2-((5-chloro-2-((4-(4-((1-((2-(2,6-dioxopiperidin-3-yl)-1,3-dioxoisoindolin-5-yl)methyl)piperidin-4-yl)methyl)piperazin-1-yl)-2-methoxyphenyl)amino)pyrimidin-4-yl)amino)phenyl)-N-methylmethanesulfonamide]",− (Protein degradation < 20%),− (Protein degradation < 20%)
"CN(c1ccccc1Nc1nc(Nc2ccc(N3CCC(N4CCN(Cc5ccc6c(c5)C(=O)N(C5CCC(=O)NC5=O)C6=O)CC4)CC3)c(F)c2)ncc1Cl)S(C)(=O)=O (centres unmarked) [Compound 42, N-(2-((5-chloro-2-((4-(4-(4-((2-(2,6-dioxopiperidin-3-yl)-1,3-dioxoisoindolin-5-yl)methyl)piperazin-1-yl)piperidin-1-yl)-3-fluorophenyl)amino)pyrimidin-4-yl)amino)phenyl)-N-methylmethanesulfonamide]",+ (Protein degradation 20~80%),− (Protein degradation < 20%)
"COc1cc(N2CCC(N3CCN(C[C@@H]4CCCN4c4ccc5c(c4)C(=O)N(C4CCC(=O)NC4=O)C5=O)CC3)CC2)ccc1Nc1ncc(Cl)c(Nc2ccccc2N(C)S(C)(=O)=O)n1 (stereo partly drawn) [Compound 44, N-(2-((5-chloro-2-((4-(4-(4-(((2S)-1-(2-(2,6-dioxopiperidin-3-yl)-1,3-dioxoisoindolin-5-yl)pyrrolidin-2-yl)methyl)piperazin-1-yl)piperidin-1-yl)-2-methoxyphenyl)amino)pyrimidin-4-yl)amino)phenyl)-N-methylmethanesulfonamide]",− (Protein degradation < 20%),+ (Protein degradation 20~80%)
"CN(c1ccccc1Nc1nc(Nc2ccc(N3CCN(CC4CCN(CCOc5cccc6c5C(=O)N(C5CCC(=O)NC5=O)C6=O)CC4)CC3)c(F)c2)ncc1Cl)S(C)(=O)=O (centres unmarked) [Compound 46, N-(2-((5-chloro-2-((4-(4-((1-(2-((2-(2,6-dioxopiperidin-3-yl)-1,3-dioxoisoindolin-4-yl)oxy)ethyl)piperidin-4-yl)methyl)piperazin-1-yl)-3-fluorophenyl)amino)pyrimidin-4-yl)amino)phenyl)-N-methylmethanesulfonamide]",+ (Protein degradation 20~80%),+ (Protein degradation 20~80%)
"COc1cc(N2CCC(CN3CCC(C(=O)Nc4cccc5c4CN(C4CCC(=O)NC4=O)C5=O)CC3)CC2)ccc1Nc1ncc(Cl)c(Nc2ccccc2N(C)S(C)(=O)=O)n1 (centres unmarked) [Compound 49, 1-((1-(4-((5-chloro-4-((2-(N-methylmethylsulfonamido)phenyl)amino)pyrimidin-2-yl)amino)-3-methoxyphenyl)piperidin-4-yl)methyl)-N-(2-(2,6-dioxopiperidin-3-yl)-1-oxoisoindolin-4-yl)piperidin-4-carboxamide]",− (Protein degradation < 20%),− (Protein degradation < 20%)
"COc1cc(N2CCC3(CCN(CC(=O)Nc4cccc5c4CN(C4CCC(=O)NC4=O)C5=O)CC3)CC2)ccc1Nc1ncc(Cl)c(Nc2ccccc2N(C)S(C)(=O)=O)n1 (centres unmarked) [Compound 50, 2-(9-(4-((5-chloro-4-((2-(N-methylmethylsulfonamido)phenyl)amino)pyrimidin-2-yl)amino)-3-methoxyphenyl)-3,9-diazaspiro[5.5]undecan-3-yl)-N-(2-(2,6-dioxopiperidin-3-yl)-1-oxoisoindolin-4-yl)acetamide]",+ (Protein degradation 20~80%),− (Protein degradation < 20%)
"COc1cc(N2CCC(N3CCN(CCOc4cccc5c4C(=O)N(C4CCC(=O)NC4=O)C5=O)CC3)CC2)ccc1Nc1ncc(Cl)c(Nc2ccccc2N(C)S(C)(=O)=O)n1 (centres unmarked) [Compound 52, N-(2-((5-chloro-2-((4-(4-(4-(2-((2-(2,6-dioxopiperidin-3-yl)-1,3-dioxoisoindolin-4-yl)oxy)ethyl)piperazin-1-yl)piperidin-1-yl)-2-methoxyphenyl)amino)pyrimidin-4-yl)amino)phenyl)-N-methylmethanesulfonamide]",+ (Protein degradation 20~80%),− (Protein degradation < 20%)
